What was measured:
Test in all cases: normalised number of viable cells after treatment (fraction of control); higher = more viable cells (less drug effect)
P1 Initial = system: P1 Initial (T-ALL xenograft cells from diagnosis)
Description: (§1)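 T-ALL PDX-derived cells (initial diagnosis or relapse samples of individual patients) co-cultured on hTERT-immortalized bone marrow MSCs in 384-well plates were treated with Cytarabine, Venetoclax, S-63845, A1331852 or FX1 (0.1 nM to 10,000 nM) for 72 h.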

P1 Relapse = system: P1 Relapse (T-ALL xenograft cells from relapse)
Description: as §1

P10 Initial = system: P10 Initial (T-ALL xenograft cells from diagnosis)
Description: as §1

P10 Relapse = system: P10 Relapse (T-ALL xenograft cells from relapse)
Description: as §1

P12 Initial = system: P12 Initial (T-ALL xenograft cells from diagnosis)
Description: as §1

P12 Relapse = system: P12 Relapse (T-ALL xenograft cells from relapse)
Description: as §1

P2 Initial = system: P2 Initial (T-ALL xenograft cells from diagnosis)
Description: as §1

P2 Relapse = system: P2 Relapse (T-ALL xenograft cells from relapse)
Description: as §1

P6 Initial = system: P6 Initial (T-ALL xenograft cells from diagnosis)
Description: as §1

P6 Relapse = system: P6 Relapse (T-ALL xenograft cells from relapse)
Description: as §1

P8 Initial = system: P8 Initial (T-ALL xenograft cells from diagnosis)
Description: as §1

P8 Relapse = system: P8 Relapse (T-ALL xenograft cells from relapse)
Description: as §1

P3 Initial = system: P3 Initial (T-ALL xenograft cells from diagnosis)
Description: as §1

P3 Relapse = system: P3 Relapse (T-ALL xenograft cells from relapse)
Description: as §1

Cc1c(-c2ccc(N3CCc4cccc(C(=O)Nc5nc6ccccc6s5)c4C3)nc2C(=O)O)cnn1CC12CC3CC(CC(C3)C1)C2
normalised number of viable cells
Conditions	0.125 nM	0.13 nM	1 nM	1.25 nM	12.5 nM	31.25 nM	100 nM	625 nM	1250 nM	10000 nM
P1 Initial	1.07	–	0.741	–	0.429	–	0.38	–	0.172	0.0585
P1 Relapse	–	1.092	–	1	–	0.758	–	0.443	–	0.104
P2 Initial	–	0.972	–	0.785	–	0.5015	–	0.407	–	0.2125
P2 Relapse	–	0.839	–	0.588	–	0.115	–	0.0705	–	0.0555
P6 Initial	–	0.809	–	0.331	–	0.037	–	0.023	–	0.0205
P6 Relapse	–	0.953	–	0.907	–	0.827	–	0.883	–	0.834
P8 Initial	–	1.17	–	0.883	–	0.704	–	0.673	–	0.4885
P8 Relapse	–	0.838	–	0.861	–	0.721	–	0.515	–	0.321
P10 Initial	–	0.894	–	0.32	–	0.163	–	0.0735	–	0.031
P10 Relapse	–	0.98	–	0.69	–	0.547	–	0.341	–	0.149
P12 Initial	–	0.976	–	0.093	–	0.151	–	0.084	–	0.054
P12 Relapse	–	2.48	–	0.433	–	0.132	–	0.075	–	0.0555

CC1(C)CCC(CN2CCN(c3ccc(C(=O)NS(=O)(=O)c4ccc(NCC5CCOCC5)c([N+](=O)[O-])c4)c(Oc4cnc5[nH]ccc5c4)c3)CC2)=C(c2ccc(Cl)cc2)C1 [Venetoclax]
Conditions	normalised number of viable cells
P1 Initial, 0.125 nM	1
P1 Initial, 1 nM	0.841
P1 Initial, 12.5 nM	0.423
P1 Initial, 100 nM	0.345
P1 Initial, 1250 nM	0.259
P1 Initial, 10000 nM	0.0865
P1 Relapse, 0.125 nM	1.02
P1 Relapse, 1 nM	0.911
P1 Relapse, 12.5 nM	0.504
P1 Relapse, 100 nM	0.781
P1 Relapse, 1250 nM	0.352
P1 Relapse, 10000 nM	0.694
P2 Initial, 0.998752 nM	1.58
P2 Initial, 9.98752 nM	1.09
P2 Initial, 99.8752 nM	0.725
P2 Initial, 998.752 nM	0.56
P2 Initial, 9987.52 nM	0.514
P2 Relapse, 0.998752 nM	1.16
P2 Relapse, 9.98752 nM	1.37
P2 Relapse, 99.8752 nM	1.19
P2 Relapse, 998.752 nM	0.933
P2 Relapse, 9987.52 nM	0.412
P3 Initial, 0.998752 nM	0.948
P3 Initial, 9.98752 nM	0.925
P3 Initial, 99.8752 nM	0.814
P3 Initial, 998.752 nM	0.821
P3 Initial, 9987.52 nM	0.139
P3 Relapse, 0.998752 nM	1.18
P3 Relapse, 9.98752 nM	1.15
P3 Relapse, 99.8752 nM	1.104
P3 Relapse, 998.752 nM	0.922
P3 Relapse, 9987.52 nM	0.072
P6 Initial, 0.998752 nM	1.17
P6 Initial, 9.98752 nM	0.743
P6 Initial, 99.8752 nM	0.5415
P6 Initial, 998.752 nM	0.355
P6 Initial, 9987.52 nM	0.269
P6 Relapse, 0.998752 nM	1.31
P6 Relapse, 9.98752 nM	1.12
P6 Relapse, 99.8752 nM	0.554
P6 Relapse, 998.752 nM	0.584
P6 Relapse, 9987.52 nM	0.169
P8 Initial, 0.998752 nM	2.58
P8 Initial, 9.98752 nM	2.56
P8 Initial, 99.8752 nM	2.09
P8 Initial, 998.752 nM	1.89
P8 Initial, 9987.52 nM	2.3
P8 Relapse, 0.998752 nM	1.21
P8 Relapse, 9.98752 nM	1.24
P8 Relapse, 99.8752 nM	1.02
P8 Relapse, 998.752 nM	0.744
P8 Relapse, 9987.52 nM	0.732
P10 Initial, 0.998752 nM	1.39
P10 Initial, 9.98752 nM	1.41
P10 Initial, 99.8752 nM	0.954
P10 Initial, 998.752 nM	0.665
P10 Initial, 9987.52 nM	0.21
P10 Relapse, 0.998752 nM	0.866
P10 Relapse, 9.98752 nM	1.17
P10 Relapse, 99.8752 nM	0.717
P10 Relapse, 998.752 nM	0.313
P10 Relapse, 9987.52 nM	0.13
P12 Initial, 0.998752 nM	1.15
P12 Initial, 9.98752 nM	1.21
P12 Initial, 99.8752 nM	0.923
P12 Initial, 998.752 nM	0.978
P12 Initial, 9987.52 nM	0.0715
P12 Relapse, 0.998752 nM	5.7
P12 Relapse, 9.98752 nM	4.1
P12 Relapse, 99.8752 nM	4.2
P12 Relapse, 998.752 nM	4.43
P12 Relapse, 9987.52 nM	0.845

— the supplement of paper PMC12205070
